Experimental findings from paper PMC6538733, “Chemical Constituents from Mentha haplocalyx Briq. (Mentha canadensis L.) and Their α-Glucosidase Inhibitory Activities” (Natural Products and Bioprospecting, 2019) are described below.

The target of this experiment is α-glucosidase. Put plainly: pNPG hydrolysis assay, absorbance at […] nm. It is filed as biochemical.
With `C=C(C)[C@@H]1CC=C(C)[C@H](O[C@@H]2O[C@H](CO)[C@@H](O)[C@H](O)[C@H]2O)C1` [compound 3, (4R,6R)-carveol β-D-glucoside], the IC50 turned out to be 516 µM.

Consider `C=C(C)[C@@H]1CC=C(C)[C@@H](O[C@@H]2O[C@H](CO)[C@@H](O)[C@H](O)[C@H]2O)C1` [compound 4, (4R,6S)-carveol β-D-glucoside], for which it took 919 µM to reach half-maximal inhibition (IC50). Compared with the last compound, the IC50 is about 1.8-fold higher.

`CC1=C(CC[C@H](C)O)C(C)(C)C[C@H](O[C@@H]2O[C@H](CO)[C@@H](O)[C@H](O)[C@H]2O)C1` [compound 11, (3R,9S)-megastigman-5-en-3,9-diol 3-O-β-D-glucopyranoside] showed an IC50 of 83.4 µM.
